Measurements taken from patent publication US8119663B2, “Heteroaryl-substituted piperidines” (Bayer Pharma Aktiengesellschaft, priority 2007, dated 2012).

What was measured:
[1] = biological target: T1, human protease activated receptor 1 (PAR1) (Homo sapiens, UniProt P25116); assay: Cellular functional in vitro test (aequorin luminescence, PAR1 test cell); format: cell-based; details: recombinant HEK293-derived cell line expressing aequorin; PAR1 agonist added at its EC50 5 minutes after test substance
T1 construct: the cell stably expresses the endogenous human PAR1 receptor and the endogenous purinergic receptor P2Y2; endogenous in cells; host or cells: HEK293-derived recombinant cell line constitutively expressing mitochondrial aequorin
T1 sequence (P25116 22-425): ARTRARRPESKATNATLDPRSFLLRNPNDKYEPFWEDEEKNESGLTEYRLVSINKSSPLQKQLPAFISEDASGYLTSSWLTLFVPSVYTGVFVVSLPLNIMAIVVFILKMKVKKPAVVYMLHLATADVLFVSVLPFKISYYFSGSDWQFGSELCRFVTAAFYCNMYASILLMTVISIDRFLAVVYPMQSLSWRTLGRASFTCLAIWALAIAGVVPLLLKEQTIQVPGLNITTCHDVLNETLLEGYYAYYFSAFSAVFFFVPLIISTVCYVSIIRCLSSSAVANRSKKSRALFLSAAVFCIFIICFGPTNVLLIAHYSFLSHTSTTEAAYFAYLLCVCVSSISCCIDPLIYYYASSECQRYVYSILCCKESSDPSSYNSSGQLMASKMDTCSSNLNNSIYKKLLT
From the text: 1.a) Cellular Functional In vitro Test
A recombinant cell line is used to identify […] of the human protease activated receptor 1 (PAR1) and to quantify the activity of the substances described herein. The cell is originally derived from a human embryonal kidney cell (HEK293; ATCC: American Type Culture Collection, Manassas, Va. 20108, USA). The test cell line constitutively expresses a modified form of the calcium-sensitive photoprotein aequorin which, after reconstitution with the cofactor coelenterazine, emits light when the free calcium concentration in the inner mitochondrial compartment is increased (Rizzuto R, Simpson A W, Brini M, Pozzan T.; Nature 1992, 358, 325-327). Additionally, the cell stably expresses the endogenous human PAR1 receptor and the endogenous purinergic receptor P2Y2. The resulting PAR1 test cell responds to stimulation of the endogenous PAR1 or P2Y2 receptor with an intracellular release of calcium ions, which can be quantified through resulting aequorin luminescence with a suitable luminometer (Milligan G, Marshall F, Rees S, Trends in Pharmacological Sciences 1996, 17, 235-237).
For testing the substance specificity, its effect after activation of the endogenous PAR1 receptor is compared to the effect after activation of the endogenous purinergic P2Y2 receptor which utilizes the same intracellular signal path.
Test procedure: The cells are plated out two days (48 hours) before the test in culture medium (DMEM F12, supplemented with 10% FCS, 2 mM glutamine, 20 mM HEPES, 1.4 mM pyruvate, 0.1 mg/ml gentamycin, 0.15% Na bicarbonate; BioWhittaker Cat.# BE04-687Q; B-4800 Verviers, Belgium) in 384-well microtitre plates and kept in a cell incubator (96% atmospheric humidity, 5% V/V CO2, 37° C.). On the day of the test, the culture medium is replaced by a tyrode solution (in mM: 140NaCl, 5l KCl, 1MgCl2, 2CaCl2, 20 glucose, 20 HEPES), which additionally contains the cofactor coelenterazine (25 μM) and glutathione (4 mM), and the microtitre plate is then incubated for a further 3-4 hours. The test substances are then pipetted onto the microtitre plate, and 5 minutes after the transfer of the test substances into the wells of the microtitre plate the plate is transferred into the luminometer, a PAR1 agonist concentration which corresponds to the EC50 is added and the resulting light signal is immediately measured in the luminometer. To distinguish an antagonist substance action from a toxic action, the endogenous purinergic receptor is immediately subsequently activated with agonist (ATP, final concentration 10 μM) and the resulting light signal is measured.

[2] = system: platelet-rich plasma (platelet aggregation triggered by thrombin receptor agonist TRAP6, SFLLRN); assay: Platelet aggregation in plasma (TRAP6/SFLLRN-induced, Born turbidimetry); format: cell-based; details: Homo sapiens; platelet-rich plasma of healthy volunteers; 10 min incubation at 37° C.; light transmission 5 minutes after agonist; concentration at which aggregation is 50% inhibited
Protocol: 1.c) Platelet Aggregation in Plasma
To determine the platelet aggregation, blood of healthy volunteers of both sexes who had not received any thrombocyte aggregation-influencing medication for the last ten days is used. The blood is drawn into monovettes (Sarstedt, Nümbrecht, Germany) which contain, as anticoagulant, sodium citrate 3.8% (1 part of citrate+9 parts of blood). To obtain platelet-rich plasma, the citrated whole blood is centrifuged at 140 g for 20 min.
For the aggregation measurements, aliquots of the platelet-rich plasma are incubated with increasing concentrations of test substance at 37° C. for 10 min. Aggregation is then triggered by addition of a thrombin receptor agonist (TRAP6, SFLLRN) in an aggregometer and determined at 37° C. using the turbidimetric method according Born (Born, G. V. R., Cross M. J., The Aggregation of Blood Platelets; J. Physiol. 1963, 168, 178-195). The SFLLRN concentration giving maximum aggregation is individually determined for each donor.
To calculate the inhibitory effect, the increase of light transmission (amplitude of the aggregation curve in %) is determined 5 minutes after addition of the agonist in the presence and absence of test substance, and the inhibition is calculated. The concentration at which the aggregation is 50% inhibited is calculated from the inhibition curves.

For `O=C(N1CCOCC1)N1CC(c2ccc(OC(F)(F)F)cc2)CC(c2nc(-c3ccc(F)cc3F)no2)C1` (racemic) [Example 38, 4-({3-[3-(2,4-Difluorophenyl)-1,2,4-oxadiazol-5-yl]-5-[4-(trifluoromethoxy)phenyl]piperidin-1-yl}carbonyl)morpholine], the IC50 [1] was 31 nM and the IC50 [2] was 93000 nM.

With `CCc1ccc(C2CC(c3nc(-c4c(F)cccc4F)no3)CN(C(=O)N3CCOCC3)C2)cc1` (racemic) [Example 39, 4-({3-[3-(2,6-Difluorophenyl)-1,2,4-oxadiazol-5-yl]-5-(4-ethylphenyl)piperidin-1-yl}carbonyl)-morpholine] the IC50 [1] was 6.8 nM and the IC50 [2] was 5600 nM.

`CCc1ccc(C2CC(c3nc(Cc4ccccc4Cl)no3)CN(C(=O)N3CCOCC3)C2)cc1` (racemic) [Example 60, 4-({3-[3-(2-Chlorobenzyl)-1,2,4-oxadiazol-5-yl]-5-(4-ethylphenyl)piperidin-1-yl}carbonyl)-morpholine] was tested, and the IC50 [1] was 10 nM and the IC50 [2] was 19600 nM.

For `COCCc1noc(C2CC(c3ccc(C)c(C(F)(F)F)c3)CN(C(=O)N3CCOCC3)C2)n1` (single isomer, unassigned) [Example 459, {3-[3-(2-Methoxyethyl)-1,2,4-oxadiazol-5-yl]-5-[4-methyl-3-(trifluoromethyl)phenyl]piperidin-1-yl}(morpholin-4-yl)methanone], the IC50 [1] was 84.2 nM.

With `CCc1ccc(C2CC(c3nc(CCOC)no3)CN(C(=O)N3CCC(O)CC3)C2)cc1` (single isomer, unassigned) [Example 549, {3-(4-Ethylphenyl)-5-[3-(2-methoxyethyl)-1,2,4-oxadiazol-5-yl]piperidin-1-yl}(4-hydroxy-piperidin-1-yl)methanone] the IC50 [1] was 12.5 nM.

In the case of `O=C(N1CCC(O)C1)N1CC(c2ccc(C(F)(F)F)cc2)CC(c2nc(C3CC3)no2)C1` (stereo not shown) [Example 146, {3-(3-Cyclopropyl-1,2,4-oxadiazol-5-yl)-5-[4-(trifluoromethyl)phenyl]piperidin-1-yl}(3-hydroxy-pyrrolidin-1-yl)methanone], the IC50 [1] is reported as 9.39 nM.

`O=C(N1CCOCC1)N1CC(c2cccc(C(F)(F)F)c2)CC(c2nc(-c3c(F)cccc3F)no2)C1` (stereo not shown) [Example 352] gave an IC50 [1] of 4.77 nM.

`O=C(N1CCOCC1)N1CC(c2cccc(C(F)(F)F)c2)CC(c2nc(-c3cc(F)ccc3F)no2)C1` (stereo not shown) [Example 356] showed an IC50 [1] of 2.73 nM.

In the case of `COCCc1noc(C2CC(c3ccc(OC(F)(F)F)cc3)CN(C(=O)N3CCC(O)C3)C2)n1` (stereo not shown) [Example 420, (3-Hydroxypyrrolidin-1-yl) {3-[3-(2-methoxyethyl)-1,2,4-oxadiazol-5-yl]-5-[4-(trifluoromethoxy)-phenyl]piperidin-1-yl}methanone], the IC50 [1] is reported as 23.8 nM.

Work on `COCc1nc(C2CC(c3ccc(C(F)(F)F)cc3)CN(C(=O)N3CCOCC3)C2)no1` (stereo not shown) [Example 465, {3-[5-(Methoxymethyl)-1,2,4-oxadiazol-3-yl]-5-[4-(trifluoromethyl)phenyl]piperidin-1-yl}-(morpholin-4-yl)methanone] yielded an IC50 [1] of 24.4 nM.
